# Patent US10501489B2, “C17-alkanediyl and alkenediyl derivatives of oleanolic acid and methods of use thereof” (REATA PHARMACEUTICALS, INC., priority 2012, dated 2019)
# Tested on: RAW264.7 mouse macrophages
# Assay: Suppression of IFNγ-induced NO production (nitric oxide production and cell viability assay)
# Type: cell-based
# Settings: RAW264.7 cells, drug pre-treatment 2 hours, then recombinant mouse IFNγ 24 hours; Griess reagent; normalized to cell viability (WST-1)
# Description: Assay results for the suppression of IFNγ-induced NO production are shown for several of the compounds of the present invention in Table 1 below. […] Details regarding this assay are provided in the Examples section below. Nitric Oxide Production and Cell Viability Assay. […] On the next day, cells were pre-treated with DMSO or drug (O-200 nM dose range) for 2 hours, and then treated with recombinant mouse IFNγ (R&D Systems) for 24 hours. Nitric Oxide concentration in media was determined using the Griess reagent system (Promega). Cell viability was determined using WST-1 reagent (Roche). IC50 values were determined based on the suppression of IFNγ induced Nitric Oxide production normalized to cell viability.
row,SMILES,IC50
1,CC1(C)CC[C@]2(CCC(=O)N3CCC3)CC[C@]3(C)[C@H](C(=O)C=C4[C@@]5(C)C=C(C#N)C(=O)C(C)(C)[C@@H]5CC[C@]43C)[C@@H]2C1 [TX63950],0.4 nM
2,CC(C)NC(=O)CC[C@]12CCC(C)(C)C[C@H]1[C@H]1C(=O)C=C3[C@@]4(C)C=C(C#N)C(=O)C(C)(C)[C@@H]4CC[C@@]3(C)[C@]1(C)CC2 [TX64064],0.4 nM
3,CCNC(=O)OCCC[C@]12CCC(C)(C)C[C@H]1[C@H]1C(=O)C=C3[C@@]4(C)C=C(C#N)C(=O)C(C)(C)[C@@H]4CC[C@@]3(C)[C@]1(C)CC2 [TX63983],5.4 nM
4,CC1(C)CC[C@]2(CCC(=O)NC(C)(C)C)CC[C@]3(C)[C@H](C(=O)C=C4[C@@]5(C)C=C(C#N)C(=O)C(C)(C)[C@@H]5CC[C@]43C)[C@@H]2C1 [TX64065],0.6 nM
5,CCNC(=O)OCC[C@]12CCC(C)(C)C[C@H]1[C@H]1C(=O)C=C3[C@@]4(C)C=C(C#N)C(=O)C(C)(C)[C@@H]4CC[C@@]3(C)[C@]1(C)CC2 [TX63981],3 nM
6,CN(C)C(=O)CC[C@]12CCC(C)(C)C[C@H]1[C@H]1C(=O)C=C3[C@@]4(C)C=C(C#N)C(=O)C(C)(C)[C@@H]4CC[C@@]3(C)[C@]1(C)CC2 [TX64060],0.4 nM
7,CCOC(=O)CC[C@]12CCC(C)(C)C[C@H]1[C@H]1C(=O)C=C3[C@@]4(C)C=C(C#N)C(=O)C(C)(C)[C@@H]4CC[C@@]3(C)[C@]1(C)CC2 [TX64042],10 nM
8,COC(=O)CNC(=O)CC[C@]12CCC(C)(C)C[C@H]1[C@H]1C(=O)C=C3[C@@]4(C)C=C(C#N)C(=O)C(C)(C)[C@@H]4CC[C@@]3(C)[C@]1(C)CC2 [TX64052],2 nM
9,CC1(C)CC[C@]2(CCC(=O)OC3CCCCC3)CC[C@]3(C)[C@H](C(=O)C=C4[C@@]5(C)C=C(C#N)C(=O)C(C)(C)[C@@H]5CC[C@]43C)[C@@H]2C1 [TX64058],29 nM
10,CC1(C)CC[C@]2(CCC(=O)N3CCC(F)(F)C3)CC[C@]3(C)[C@H](C(=O)C=C4[C@@]5(C)C=C(C#N)C(=O)C(C)(C)[C@@H]5CC[C@]43C)[C@@H]2C1 [TX64049],2 nM
11,CC(=O)OCC[C@]12CCC(C)(C)C[C@H]1[C@H]1C(=O)C=C3[C@@]4(C)C=C(C#N)C(=O)C(C)(C)[C@@H]4CC[C@@]3(C)[C@]1(C)CC2 [TX63610],2.2 nM
12,CC1(C)CC[C@]2(CCC(=O)N3CCCC3)CC[C@]3(C)[C@H](C(=O)C=C4[C@@]5(C)C=C(C#N)C(=O)C(C)(C)[C@@H]5CC[C@]43C)[C@@H]2C1 [TX63949],0.6 nM
13,COC(=O)CC[C@]12CCC(C)(C)C[C@H]1[C@H]1C(=O)C=C3[C@@]4(C)C=C(C#N)C(=O)C(C)(C)[C@@H]4CC[C@@]3(C)[C@]1(C)CC2 [TX63742],2 nM
14,CC1(C)CC[C@]2(CCC(=O)OC3CCNCC3)CC[C@]3(C)[C@H](C(=O)C=C4[C@@]5(C)C=C(C#N)C(=O)C(C)(C)[C@@H]5CC[C@]43C)[C@@H]2C1 [TX64055],1.7 nM
15,CC1(C)CC[C@]2(CCCO)CC[C@]3(C)[C@H](C(=O)C=C4[C@@]5(C)C=C(C#N)C(=O)C(C)(C)[C@@H]5CC[C@]43C)[C@@H]2C1 [TX63744],1.1 nM
16,CC1(C)CC[C@]2(CCO)CC[C@]3(C)[C@H](C(=O)C=C4[C@@]5(C)C=C(C#N)C(=O)C(C)(C)[C@@H]5CC[C@]43C)[C@@H]2C1 [TX63608],1.1 nM
17,CC1(C)CC[C@]2(CCC(=O)NC3CCCCC3)CC[C@]3(C)[C@H](C(=O)C=C4[C@@]5(C)C=C(C#N)C(=O)C(C)(C)[C@@H]5CC[C@]43C)[C@@H]2C1 [TX64057],0.8 nM
18,COCC[C@]12CCC(C)(C)C[C@H]1[C@H]1C(=O)C=C3[C@@]4(C)C=C(C#N)C(=O)C(C)(C)[C@@H]4CC[C@@]3(C)[C@]1(C)CC2 [TX63609],2.9 nM
19,CC1(C)CC[C@]2(CCC(N)=O)CC[C@]3(C)[C@H](C(=O)C=C4[C@@]5(C)C=C(C#N)C(=O)C(C)(C)[C@@H]5CC[C@]43C)[C@@H]2C1 [TX64074],0.3 nM
20,CC1(C)CC[C@]2(COC(=O)n3ccnc3)CC[C@]3(C)[C@H](C(=O)C=C4[C@@]5(C)C=C(C#N)C(=O)C(C)(C)[C@@H]5CC[C@]43C)[C@@H]2C1 [TX63868],0.7 nM
21,CC1(C)CC[C@]2(CCC(=O)O)CC[C@]3(C)[C@H](C(=O)C=C4[C@@]5(C)C=C(C#N)C(=O)C(C)(C)[C@@H]5CC[C@]43C)[C@@H]2C1 [TX63762],1.2 nM
22,CC[C@]12CCC(C)(C)C[C@H]1[C@H]1C(=O)C=C3[C@@]4(C)C=C(C#N)C(=O)C(C)(C)[C@@H]4CC[C@@]3(C)[C@]1(C)CC2 [TX63403],8.6 nM
23,CCNC(=O)OC[C@]12CCC(C)(C)C[C@H]1[C@H]1C(=O)C=C3[C@@]4(C)C=C(C#N)C(=O)C(C)(C)[C@@H]4CC[C@@]3(C)[C@]1(C)CC2 [TX63930],0.9 nM

row,SMILES,IC50
1,CC1(C)CC[C@]2(COC(=O)N3CCCC3)CC[C@]3(C)[C@H](C(=O)C=C4[C@@]5(C)C=C(C#N)C(=O)C(C)(C)[C@@H]5CC[C@]43C)[C@@H]2C1 [TX63927],1.3 nM
2,CC1(C)CC[C@]2(CCC(=O)N3CC[C@H](O)C3)CC[C@]3(C)[C@H](C(=O)C=C4[C@@]5(C)C=C(C#N)C(=O)C(C)(C)[C@@H]5CC[C@]43C)[C@@H]2C1 [TX64047],3.3 nM
3,CCNC(=O)CC[C@]12CCC(C)(C)C[C@H]1[C@H]1C(=O)C=C3[C@@]4(C)C=C(C#N)C(=O)C(C)(C)[C@@H]4CC[C@@]3(C)[C@]1(C)CC2 [TX63768],0.3 nM
4,CC1(C)CC[C@]2(CCC(=O)N3CCC(O)CC3)CC[C@]3(C)[C@H](C(=O)C=C4[C@@]5(C)C=C(C#N)C(=O)C(C)(C)[C@@H]5CC[C@]43C)[C@@H]2C1 [TX64048],1.2 nM
5,CC1(C)CC[C@]2(CCC(=O)Nc3ccccc3)CC[C@]3(C)[C@H](C(=O)C=C4[C@@]5(C)C=C(C#N)C(=O)C(C)(C)[C@@H]5CC[C@]43C)[C@@H]2C1 [TX64059],1.4 nM
6,CC1(C)CC[C@]2(CCC(=O)OC3CCN(C(=O)OC(C)(C)C)CC3)CC[C@]3(C)[C@H](C(=O)C=C4[C@@]5(C)C=C(C#N)C(=O)C(C)(C)[C@@H]5CC[C@]43C)[C@@H]2C1 [TX64053],37 nM
7,CC1(C)CC[C@]2(CCC(=O)N3CCN(C(=O)OC(C)(C)C)CC3)CC[C@]3(C)[C@H](C(=O)C=C4[C@@]5(C)C=C(C#N)C(=O)C(C)(C)[C@@H]5CC[C@]43C)[C@@H]2C1 [TX64124],3.4 nM
8,CC1(C)CC[C@]2(CCC(=O)NCC(F)(F)F)CC[C@]3(C)[C@H](C(=O)C=C4[C@@]5(C)C=C(C#N)C(=O)C(C)(C)[C@@H]5CC[C@]43C)[C@@H]2C1 [TX63764],0.7 nM
9,CC1(C)CC[C@]2(CCC(=O)Oc3ccccc3)CC[C@]3(C)[C@H](C(=O)C=C4[C@@]5(C)C=C(C#N)C(=O)C(C)(C)[C@@H]5CC[C@]43C)[C@@H]2C1 [TX64046],8.5 nM
10,COC(=O)/C=C/[C@]12CCC(C)(C)C[C@H]1[C@H]1C(=O)C=C3[C@@]4(C)C=C(C#N)C(=O)C(C)(C)[C@@H]4CC[C@@]3(C)[C@]1(C)CC2 [TX63743],3.2 nM
11,CONC(=O)CC[C@]12CCC(C)(C)C[C@H]1[C@H]1C(=O)C=C3[C@@]4(C)C=C(C#N)C(=O)C(C)(C)[C@@H]4CC[C@@]3(C)[C@]1(C)CC2 [TX64056],0.3 nM
12,CC(=O)NNC(=O)CC[C@]12CCC(C)(C)C[C@H]1[C@H]1C(=O)C=C3[C@@]4(C)C=C(C#N)C(=O)C(C)(C)[C@@H]4CC[C@@]3(C)[C@]1(C)CC2 [TX64045],5.6 nM
13,CC1(C)CC[C@]2(CCC(=O)N3CCOCC3)CC[C@]3(C)[C@H](C(=O)C=C4[C@@]5(C)C=C(C#N)C(=O)C(C)(C)[C@@H]5CC[C@]43C)[C@@H]2C1 [TX63763],0.4 nM
14,CC1(C)CC[C@]2(CCC(=O)OCc3ccccc3)CC[C@]3(C)[C@H](C(=O)C=C4[C@@]5(C)C=C(C#N)C(=O)C(C)(C)[C@@H]5CC[C@]43C)[C@@H]2C1 [TX64066],20 nM
15,CC1(C)CC[C@]2(COC(=O)N3CCOCC3)CC[C@]3(C)[C@H](C(=O)C=C4[C@@]5(C)C=C(C#N)C(=O)C(C)(C)[C@@H]5CC[C@]43C)[C@@H]2C1 [TX63926],0.7 nM
16,CC1(C)CC[C@]2(CCC(=O)NC3COC3)CC[C@]3(C)[C@H](C(=O)C=C4[C@@]5(C)C=C(C#N)C(=O)C(C)(C)[C@@H]5CC[C@]43C)[C@@H]2C1 [TX64044],1.3 nM
17,CC1(C)CC[C@]2(CCC(=O)Nc3ccccn3)CC[C@]3(C)[C@H](C(=O)C=C4[C@@]5(C)C=C(C#N)C(=O)C(C)(C)[C@@H]5CC[C@]43C)[C@@H]2C1 [TX64068],1.1 nM
18,CC1(C)CC[C@]2(CCC(=O)OC(C)(C)C)CC[C@]3(C)[C@H](C(=O)C=C4[C@@]5(C)C=C(C#N)C(=O)C(C)(C)[C@@H]5CC[C@]43C)[C@@H]2C1 [TX64067],14 nM
19,CNC(=O)CC[C@]12CCC(C)(C)C[C@H]1[C@H]1C(=O)C=C3[C@@]4(C)C=C(C#N)C(=O)C(C)(C)[C@@H]4CC[C@@]3(C)[C@]1(C)CC2 [TX63770],0.2 nM
20,CC1(C)CC[C@]2(CCC(=O)N3CCNCC3)CC[C@]3(C)[C@H](C(=O)C=C4[C@@]5(C)C=C(C#N)C(=O)C(C)(C)[C@@H]5CC[C@]43C)[C@@H]2C1 [TX64135],1.5 nM
21,CC1(C)CC[C@]2(CCC(=O)NCC(=O)O)CC[C@]3(C)[C@H](C(=O)C=C4[C@@]5(C)C=C(C#N)C(=O)C(C)(C)[C@@H]5CC[C@]43C)[C@@H]2C1 [TX64054],97 nM
22,CC(C)OC(=O)CC[C@]12CCC(C)(C)C[C@H]1[C@H]1C(=O)C=C3[C@@]4(C)C=C(C#N)C(=O)C(C)(C)[C@@H]4CC[C@@]3(C)[C@]1(C)CC2 [TX64043],21 nM
